Source: patent US20210205415A1 (Longevity Biotech, Inc., priority 2010, published 2021)
No end group written: not given here.

Legend:
[1] = biological target: T1, VPAC2 receptors (Homo sapiens, UniProt P41587); conditions: read-out: IC50 for VPAC2 receptor; cited from earlier work
T1 sequence (P41587 24-438): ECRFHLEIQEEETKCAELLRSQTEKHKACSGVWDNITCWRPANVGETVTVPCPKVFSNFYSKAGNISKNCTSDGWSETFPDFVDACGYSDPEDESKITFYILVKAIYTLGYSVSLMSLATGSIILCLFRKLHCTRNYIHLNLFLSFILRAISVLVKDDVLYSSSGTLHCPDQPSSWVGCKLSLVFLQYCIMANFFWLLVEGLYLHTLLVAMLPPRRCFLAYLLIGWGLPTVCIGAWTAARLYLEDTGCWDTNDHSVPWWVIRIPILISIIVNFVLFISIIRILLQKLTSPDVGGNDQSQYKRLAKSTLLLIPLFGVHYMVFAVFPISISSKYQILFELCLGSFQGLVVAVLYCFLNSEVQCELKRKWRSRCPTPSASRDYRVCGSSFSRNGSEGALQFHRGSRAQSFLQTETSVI

[2] = biological target: T2, VPAC1 receptor (Homo sapiens, UniProt P32241); conditions: cited from earlier work
T2 sequence (P32241 31-457): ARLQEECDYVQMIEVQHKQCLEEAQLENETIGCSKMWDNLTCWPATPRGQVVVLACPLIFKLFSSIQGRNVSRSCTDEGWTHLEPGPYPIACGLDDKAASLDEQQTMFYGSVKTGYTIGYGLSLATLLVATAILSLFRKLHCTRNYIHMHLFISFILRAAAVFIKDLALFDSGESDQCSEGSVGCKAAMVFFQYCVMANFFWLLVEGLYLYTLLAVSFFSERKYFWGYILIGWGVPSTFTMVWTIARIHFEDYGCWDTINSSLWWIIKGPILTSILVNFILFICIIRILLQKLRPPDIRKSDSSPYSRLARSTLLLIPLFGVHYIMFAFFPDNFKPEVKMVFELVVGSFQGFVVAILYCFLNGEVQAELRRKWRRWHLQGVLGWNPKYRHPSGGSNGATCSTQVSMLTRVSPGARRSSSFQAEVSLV

[3] = biological target: T3, Glucagon receptor (Rattus norvegicus, UniProt P30082); conditions: rat liver membranes; cited from earlier work
T3 construct: from tissue; host or cells: rat liver membranes (value quoted from the literature)
T3 sequence (P30082 27-485): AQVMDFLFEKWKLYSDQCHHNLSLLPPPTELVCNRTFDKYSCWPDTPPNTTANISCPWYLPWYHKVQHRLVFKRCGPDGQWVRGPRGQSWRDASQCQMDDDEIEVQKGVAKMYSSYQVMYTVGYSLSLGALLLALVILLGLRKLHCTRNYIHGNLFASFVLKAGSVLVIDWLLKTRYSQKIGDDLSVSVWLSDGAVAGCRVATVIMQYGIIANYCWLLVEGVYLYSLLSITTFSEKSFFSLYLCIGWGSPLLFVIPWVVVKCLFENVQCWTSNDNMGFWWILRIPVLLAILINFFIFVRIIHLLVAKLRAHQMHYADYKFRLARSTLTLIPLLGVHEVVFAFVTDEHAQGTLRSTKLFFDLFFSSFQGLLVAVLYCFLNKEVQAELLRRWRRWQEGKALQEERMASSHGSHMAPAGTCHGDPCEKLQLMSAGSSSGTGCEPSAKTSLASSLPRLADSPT

[4] = test system: calcitonin-gene related peptide (CGRP) and adrenomedullin receptors; conditions: cited from earlier work
[5] = test system: calcitonin (CT) receptor; conditions: cited from earlier work
[6] = biological target: T4, CRF2α (Homo sapiens, UniProt Q13324); conditions: cited from earlier work
T4 sequence (Q13324 1-411): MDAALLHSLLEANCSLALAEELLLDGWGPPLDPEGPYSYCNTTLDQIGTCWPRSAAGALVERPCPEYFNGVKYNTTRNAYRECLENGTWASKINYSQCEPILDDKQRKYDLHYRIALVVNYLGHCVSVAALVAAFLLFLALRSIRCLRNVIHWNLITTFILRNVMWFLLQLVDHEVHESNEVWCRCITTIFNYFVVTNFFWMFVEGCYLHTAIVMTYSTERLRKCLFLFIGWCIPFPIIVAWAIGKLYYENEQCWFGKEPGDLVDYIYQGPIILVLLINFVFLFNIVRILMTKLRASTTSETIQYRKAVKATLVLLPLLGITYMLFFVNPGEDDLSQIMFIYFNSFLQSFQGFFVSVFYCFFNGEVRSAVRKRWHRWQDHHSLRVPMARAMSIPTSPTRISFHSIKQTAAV

[7] = biological target: mouse CRF2β (Mus musculus, UniProt Q60748); conditions: read-out: Kd for binding to mouse CRF2β; cited from earlier work
Sequence of mouse CRF2β (Q60748 1-431 isoform Q60748-2): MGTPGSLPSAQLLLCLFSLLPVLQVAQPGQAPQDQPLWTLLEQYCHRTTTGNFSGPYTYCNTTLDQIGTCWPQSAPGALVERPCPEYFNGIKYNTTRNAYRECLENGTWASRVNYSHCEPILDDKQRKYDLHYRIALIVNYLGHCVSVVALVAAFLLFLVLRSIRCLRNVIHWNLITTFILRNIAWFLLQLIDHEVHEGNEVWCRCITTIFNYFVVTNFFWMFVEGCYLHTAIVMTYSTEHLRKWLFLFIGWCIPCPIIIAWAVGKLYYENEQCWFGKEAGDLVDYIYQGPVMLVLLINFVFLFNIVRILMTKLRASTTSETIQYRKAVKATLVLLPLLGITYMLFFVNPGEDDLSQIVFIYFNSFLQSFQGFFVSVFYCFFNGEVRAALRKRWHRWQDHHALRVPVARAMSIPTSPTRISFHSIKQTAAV

[8] = biological target: T5, HEK-mCRF2β cells (Mus musculus, UniProt Q60748); conditions: cited from earlier work
T5 construct: expressed in transfected cells; host or cells: HEK cells (value quoted from the literature)
T5 sequence (Q60748 1-431 isoform Q60748-2): as above

[9] = biological target: T6, rat CRF1 receptors (Rattus norvegicus, UniProt P35353); conditions: read-out: Kd for binding to rat CRF1 receptors; cited from earlier work
T6 sequence (P35353 24-415): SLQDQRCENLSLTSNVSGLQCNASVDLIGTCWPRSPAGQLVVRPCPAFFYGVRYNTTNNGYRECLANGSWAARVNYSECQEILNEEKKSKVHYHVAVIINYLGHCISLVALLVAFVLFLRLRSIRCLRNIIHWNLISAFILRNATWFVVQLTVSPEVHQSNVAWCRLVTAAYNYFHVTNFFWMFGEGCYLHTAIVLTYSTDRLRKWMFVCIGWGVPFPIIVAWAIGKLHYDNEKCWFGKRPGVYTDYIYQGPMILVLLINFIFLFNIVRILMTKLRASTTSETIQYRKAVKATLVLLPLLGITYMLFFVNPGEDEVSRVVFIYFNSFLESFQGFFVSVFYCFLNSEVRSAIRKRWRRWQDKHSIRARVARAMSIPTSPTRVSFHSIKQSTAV

[10] = biological target: T7, VIPR1 (Homo sapiens, UniProt P32241); assay: cAMP Hunter cell line agonist mode assay (DiscoveRx HitHunter cAMP XS+); assay type: cell-based; conditions: for Mean RLU: readout cAMP, cell line VIPR1
T7 sequence (P32241 31-457): T2 sequence (P32241 31-457)
Procedure: (§1) Once it was established that the cells were healthy and growing normally, cells were passaged from flasks using cell dissociation reagent buffer and seeded into white walled clear bottom 384-well microplates for compound profiling. For profiling, cells were seeded at a density of 10,000 cells per well in a total volume of 20 μL and were allowed to adhere and recover overnight prior to compound addition. cAMP modulation was determined using the DiscoveRx HitHunter cAMP XS+ assay.
(§2) For profiling compound in agonist mode, the cells were incubated in the presence of compound at 37° C. for 30 minutes. […] After appropriate compound incubation, assay signal was generated through incubation with DiscoverX lysis cocktail according to the manufacturers standard protocol. Dose curves were plotted using GraphPad Prism or Activity Base. Percentage activity is calculated using the following formula:
(§3) % Activity=100% ×(mean RLU of test sample−mean RLU of vehicle control)/(mean RLU of MAX control−mean RLU of vehicle control).

[11] = biological target: T8, VIPR2 (Homo sapiens, UniProt P41587); assay: as above; assay type: cell-based; conditions: for Mean RLU: readout cAMP, cell line VIPR2
T8 sequence (P41587 24-438): T1 sequence (P41587 24-438)
Procedure: as §1, §2, §3

[12] = biological target: neurotensin receptors; conditions: rat brain receptors; read-out: IC50 for inhibition of {Trp11}-NT binding; cited from earlier work
[13] = humans; cited from earlier work

In the case of {Ala2,8,9,11,19,22,24,25,27,28}-VIP, the IC50 [1] is listed as over 30000 nM and the IC50 [2] is listed as 115 to 132 nM.

In the case of des-His1-{Glu9}-Glucagon (1-29) amide, the “pA2 for inhibition of glucagon-induced adenylyl cyclase activation” value [3] is listed as “(Glucagon receptor antagonist (pA2=72 for inhibition of glucagon-induced”.

For “Calcitoninreceptor-stimulating peptide-1 (SCNTATCMTHRLVGLLSRSGSMVRSNLLPTKMGFKVFG-NH2; ends and bridges not checked; UniProt Q862B1 81-118, looked up)”, the “activity at CGRP and adrenomedullin receptors” value [4] is listed as “no activity at calcitonin-gene related peptide (CGRP) and adrenomedullin”, the “ED50, stimulation of cAMP formation” value ([5]; calcitonin (CT) receptor) is listed as 02 nM and the “potency of cAMP formation relative to CT” value ([5]; greater than CT) is listed as 350 fold.

For Astressin, the Ki [6] is listed as 15 nM.

In the case of Antisauvagine-30, the Kd [7] is listed as 14 nM, the “pA2, inhibition of sauvagine-stimulated cAMP accumulation” value [8] is listed as “accumulation in HEK-mCRF2β cells (pA2=849) Prevents stress-” and the Kd [9] is listed as 1540 nM.

For `CC[C@H](C)[C@H](NC(=O)[C@H]1CCC[C@@H]1NC(=O)[C@H](CC(N)=O)NC(=O)[C@H](CC(C)C)NC(=O)[C@H](Cc1ccc(O)cc1)NC(=O)[C@H]1CNC[C@@H]1NC(=O)[C@H](CCCCN)NC(=O)[C@@H](NC(=O)[C@H]1CCC[C@@H]1NC(=O)[C@H](CC(C)C)NC(=O)[C@H](CCC(N)=O)NC(=O)[C@H](CCCCN)NC(=O)[C@H]1CNC[C@@H]1NC(=O)[C@H](CC(C)C)NC(=O)[C@H](CCCNC(=N)N)NC(=O)[C@H]1CCC[C@@H]1NC(=O)[C@H](Cc1ccc(O)cc1)NC(=O)[C@H](CC(N)=O)NC(=O)[C@H](CC(=O)O)NC(=O)[C@@H](NC(=O)[C@H](Cc1ccccc1)NC(=O)[C@@H](NC(=O)[C@H](C)NC(=O)[C@H](CC(=O)O)NC(=O)[C@H](CO)NC(=O)[C@@H](N)Cc1c[nH]cn1)C(C)C)[C@@H](C)O)C(C)C)C(=O)N[C@H](CC(=O)NC(CC(N)=O)CC(N)=O)CC(C)C` [Compound 8, HSDAVFTDNYXRLZKQLXVKZYLNXILN], the “EC50 compared with wild-type VIP” value ([10]; FIG. 3 legend) was “higher than the EC50 of wild-type VIP protein”, the Emax ([10]; FIG. 3 legend, read-out: activation of VIPR1 relative to maximum activation) was about 100% and the “Mean RLU” value ([10]; [Compound] 1.00E−08 M, agonist mode) was 13750.0 RLU. The “Mean RLU” value ([10]; [Compound] 1.00E−09 M, agonist mode) was 18600.0 RLU, the “Mean RLU” value ([10]; [Compound] 1.00E−10 M, agonist mode) was 9060.0 RLU and the “Mean RLU” value ([10]; [Compound] 1.00E−11 M, agonist mode) was 10500.0 RLU. For the same compound, the “Mean RLU” value ([10]; [Compound] 1.00E−12 M, agonist mode) was 10340.0 RLU, the “Mean RLU” value ([10]; [Compound] 5.00E−09 M, agonist mode) was 13250.0 RLU and the “Mean RLU” value ([10]; [Compound] 5.00E−10 M, agonist mode) was 9520.0 RLU. For the same compound, the “activation of VIPR1” value ([10]; agonist mode, FIG. 3) was “fully activate VIPR1”, the “interaction with VIPR2” value [11] was “does not interact substantially with VIPR2” and the “activation of VIPR2” value ([11]; FIG. 3) was “not activate VIPR2”. For the same compound, the “Mean RLU” value ([11]; [Compound] 1.00E−07 M) was 5920.0 RLU, the “Mean RLU” value ([11]; [Compound] 1.00E−08 M) was 9580.0 RLU and the “Mean RLU” value ([11]; [Compound] 1.00E−09 M) was 5960.0 RLU. For the same compound, the “Mean RLU” value ([11]; [Compound] 1.00E−10 M) was 7560.0 RLU, the “Mean RLU” value ([11]; [Compound] 1.00E−11 M) was 9250.0 RLU and the “Mean RLU” value ([11]; [Compound] 1.00E−12 M) was 8960.0 RLU. For the same compound, the “Mean RLU” value ([11]; [Compound] 5.00E−07 M) was 10200.0 RLU, the “Mean RLU” value ([11]; [Compound] 5.00E−08 M) was 9200.0 RLU and the “Mean RLU” value ([11]; [Compound] 5.00E−09 M) was 3560.0 RLU. For the same compound, the “Mean RLU” value ([11]; [Compound] 5.00E−10 M) was 9620.0 RLU.

For “Neuromedin N (rat, mouse, porcine, canine) (KIPYIL; Neuromedin N; UniProt P20068 142-147, looked up)”, the IC50 [12] is given as 167 nM.

For glucagon-like peptide-1 [GLP-1], the plasma half-life [13] is listed as 2 min.
